In patent publication US8492379B2, “Translocator protein ligands” (The University of Sydney, priority 2007, dated 2013):

target: TSPO in microglia (Rattus norvegicus (Rat), UniProt P16257); experiment: not given; settings: quinolinic acid-injected rat striatum; cited from earlier work
Sequence (P16257 whole entry): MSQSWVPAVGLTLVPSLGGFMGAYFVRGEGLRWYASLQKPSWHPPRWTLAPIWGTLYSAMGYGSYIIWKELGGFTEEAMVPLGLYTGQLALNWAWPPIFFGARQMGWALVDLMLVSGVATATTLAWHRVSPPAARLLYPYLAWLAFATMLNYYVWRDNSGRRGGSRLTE

| Compound | effect on microglial activation and neuronal death |
| --- | --- |
| CCC(C)N(C)C(=O)c1cc2ccccc2c(-c2ccccc2Cl)n1 (centres unmarked) [PK 11195] | reduces microglial activation and neuronal death |

target: TSPO (Rattus norvegicus (Rat), UniProt P16257); experiment: In vitro binding affinity, 3H-PK11195 displacement in kidney mitochondria; settings: 0.6 nM 3H-PK11195, mitochondria from kidneys of male Wistar rats, 90 min at 4° C.
Sequence (P16257 whole entry, looked up): as the sequence (P16257 whole entry) above
Experimental: 3H-PK11195 (specific activity 322 GBq/mmol) and 3H-Ro 15-1788 (specific activity 311 GBq/mmol) were purchased from Dupont-New England Nuclear. For binding studies, mitochondria were prepared as described in Trapani G., et al. J Med Chem. 1997; 40:3109-3118, with minor modifications as described here, from the kidneys of male Wistar rats killed by cervical dislocation. The kidneys were homogenized in 20 volumes of ice-cold 50 mM Tris-HCl (pH 7.4), 0.32 M sucrose, and 1 mM ethylenediaminetetraacetic acid (buffer A) containing protease inhibitors (benzamidine at […], bacitracin at […], and soybean trypsin inhibitor at […]) with a Teflon (DuPont) pestle in a glass homogenizer and centrifuged at 600 g for 10 min at 4° C. The resulting supernatant was centrifuged at 10,000 g for 10 min at 4° C. The pellet was suspended in 20 volumes of ice cold buffer A and centrifuged at 10,000 g for 10 min at 4° C. The crude mitochondrial pellet was frozen at −20° C. until the time of the assay or incubated with 0.6 nM 3H-PK11195 in 50 mM Tris-HCl (pH 7.4) (buffer B) with a range of concentrations of the tested compounds (0.1 nM-10 mM) in a total volume of 0.5 mL for 90 min at 4° C. The incubation was terminated by dilution to 5 mL with icecold buffer B; this step was followed immediately by rapid filtration through glass fiber Whatman GF/C filters. The filters were washed (2.5 mL) with buffer B, and the amount of radioactivity retained on the filters was determined with a Packard 1600 TR liquid scintillation counter at 66% efficiency. Nonspecific binding was estimated for each sample in the presence of unlabeled 1 mM PK11195. The 50% inhibitory concentrations were determined, and the dissociation constant (Ki) values were derived according to a previously derived equation (Cheng Y., et al. Biochem Pharmacol. 1973; 22:3099-3108). The protein concentration was estimated by the method of Lowry et al. (J Biol Chem. 1951; 193:265-275) with bovine serum albumin (Sigma-Aldrich) as the standard.

| Compound | Ki [nM] |
| --- | --- |
| CCN(CC)C(=O)Cc1c(-c2ccc(Br)cc2)nc2c(C)cc(C)nn12 | 0.97 |
| CCN(CC)C(=O)C(Oc1ccccc1-n1cccc1)c1ccc(OC)cc1 (centres unmarked) | 5 |
| CCN(CC)C(=O)Cc1c(-c2ccc(Cl)cc2)nc2c(C)cc(C)nn12 | 0.45 |
| CCN(CC)C(=O)C(Oc1cccnc1-n1cccc1)c1ccc(OC)cc1 (centres unmarked) | 4 |
| CCN(CC)C(=O)Cc1c(-c2ccc(F)cc2)nc2c(C)cc(C)nn12 | 2.4 |
| CCN(CC)C(=O)Cc1c(-c2ccc(C)cc2)nc2c(C)cc(C)nn12 | 0.46 |
| CCN(CC)C(=O)C(Oc1ccc(Cl)cc1-n1cccc1)c1ccc(OC)cc1 (centres unmarked) | 5.7 |
